The results in this text go back to patent US9931380B2, “Medicament for treating olfaction disorder” (priority 2015, dated 2018).

Test [1] in a line: Blood sugar level of DM (STZ) mice given the insulin preparation. Type of test: in vivo, C57BL/6 mice. The note with it: intraperitoneally once a day, 2 to 3 U/kg of insulin detemir. The method, then:
(§1) To C57BL/6 mice (normal mice; Japan SLC, Inc) at the age of 10 weeks, 120 mg/kg of streptozotocin (STZ; Sigma-Aldrich) was administered intraperitoneally for three days in a row, on Days 0 (Initial administration), 1, and 2. On Day 7, those with a fasting blood glucose (fasting blood sugar level: FBS) of 250 mg/dl or more were defined as DM mice in which pancreatic β cells were specifically impaired. Moreover, subsequent operations used those with a blood sugar of more than 250 mg/dl at any time after about one week since the administration of STZ.
As the insulin preparation, “Levemir FlexPen (Registered Trademark)” was used (referred to as Levemir). Levemir was administered intraperitoneally into DM mice once a day, with 2 to 3 U/kg of the insulin detemir each. […] The amount of insulin given here was therefore regarded as the amount that can properly resolve the shortages of insulin in the DM mice. The olfactory epithelium tissues of groups of DM mice (group a, group b, and group c) were observed 14 days after the administration of methimazole (Refer to FIGS. 9A and 9B): Each group differs on the time when insulin was additionally given. […] Then, with the use of the above-described method, the number of olfactory nerve cells (OSNs) of olfactory epithelium, the thickness of olfactory epithelium, and the number of OMP positive cells were counted in each group. […]

Another test has as its system olfactory epithelium. In words: Regeneration of olfactory epithelium in DM model mice with methimazole-induced olfactory disturbance after insulin administration. Type of test: in vivo, C57BL/6 mice. To be noted: for number of olfactory nerve cells, DM mice vs normal mice / thickness of olfactory epithelium, DM mice vs normal mice / number of mature olfactory nerve cells (number of OMP positive cells), DM mice vs normal mice: read 14 days after methimazole. The method, then: as §1
To each of positive control mice, which were created by giving only physiological saline to normal mice, and DM mice, 80 mg/kg of methimazole (Siyma-Aldrich) was administered intraperitoneally in order to create model mice with olfactory disturbance. The model mice with olfactory disturbance were created as metabolites of methimazole selectively damaged olfactory epithelium. The mechanism of olfactory disturbance is considered to be the activation of caspase that induces apoptosis in olfactory cells. When normal mice were given methimazole, the damaged olfactory epithelium could recover to the almost normal level about 28 days after the administration. Moreover, normal mice that were given physiological saline instead of methimazole were used as control. Their weight and blood sugar levels of tail veins were measured 28 days after the methimazole injection.
The hearts of mice were perfused with 4% paraformaldehyde in 0.1M phosphate buffer. The mice were sacrificed and fixed 24 hours later with the same fixative. Nostril tissues containing OE were decalcified with a 10% EDTA solution (pH 7.0), and were embedded in paraffin. Coronal sections (with thickness of 4 μm) were cut off and put on silane-coated slides. The deparaffinized sections were autoclaved for 10 minutes in Target Retrieval Solution (S1700; Dako) for antigen retrieval. Immunohistochemistry was conducted with one of the following antibodies: Anti-insulin receptors, anti-phosphorylated insulin receptors, anti-olfactory marker proteins (OMP, goat polyclonal, 1:4000 dilution; Wako Chemicals), anti-activated caspase-3 (rabbit polyclonal, 1:5000; Cell Signaling Technology), anti-Ki-67 (mouse monoclonal, 1:500; BD Biosciences), and anti-c-fos antibodies (Rabbit IgG, 1:1000; Santa Cruz Biotechnology).
In order to suppress the variation of data values that could be caused by anatomical changes (e.g. aerated nasal turbinate) between mice and in the mice, the OE analysis was conducted in such a way as to be limited to OE (olfactory epithelium) of the nasal septum and nasal turbinate's top on the right and left sides in the nasal cavity.
Sections were cut at intervals of 500 μm. The olfactory epithelium included the following two cell lines: Olfactory nerve cells (OSNs) and basal stem cells. Rectangular cells on lamina propria in OE were defined as basal cells. The rest of the cells were defined as OSNs. The thickness, or distance from the lamina propria to the surface, was measured with software known as ImageJ. The number of OSNs labeled with anti-OMP, anti-activated caspase-3, and anti-Ki-67 antibody was quantitatively analyzed by uniquely immunostaining for each antigen and using sections counterstained with hematoxylin. As for connective tissues under the lamina propria, the immunostaining of cells with an intermediate background intensity more than double the standard deviation was regarded as being positive. The number of OSNs and the number of immunostained cells (OMP-positive cells, Ki-67-positive cells, and caspase-3 positive cells) were measured along the total length of the nasal septum in microscopic observation images (of each of normal groups and STZ groups) for both the left and right sides. […]

[2] abbreviates: group a: 3 U/kg i.p. day 1 to 14.
Setting [3] is: group b as printed: 3 U/kg i.p. day 1 to 7.
The mark [4] stands for this setting: group b: 3 U/kg i.p. only day 1 to 7, 14 days after onset of disturbance.
[5] abbreviates: groups a (day 1 to 14) and c (day 7 to 14), 3 U/kg i.p., 14 days after onset of disturbance.

Regarding insulin detemir [Levemir], the blood sugar levels entry in test [1] is “around 130 mg/dl”. In addition, in the test with olfactory epithelium (setting [2]), the “number of olfactory nerve cells, DM mice vs normal mice” value is recorded as “no significant difference” and the “thickness of olfactory epithelium, DM mice vs normal mice” value was “no significant difference”. In addition, the “number of mature olfactory nerve cells (number of OMP positive cells), DM mice vs normal mice” value in the test on olfactory epithelium (group a: 3 U/kg i.p. every day, day 1 to 14 after methimazole) is listed as “broadly comparable to normal mice”. Further, in the test on olfactory epithelium (setting [3]), the “number of olfactory nerve cells, DM mice vs normal mice” value is given as “no significant difference” and the “thickness of olfactory epithelium, DM mice vs normal mice” value is on record as “no significant difference”. For the same substance, the “number of mature olfactory nerve cells (number of OMP positive cells), DM mice vs normal mice” value in the test on olfactory epithelium (group b as printed: 3 U/kg i.p. only day 1 to 7 after methimazole) was “broadly comparable to normal mice”. In the test on olfactory epithelium (setting [4]), the “number of OMP positive cells, compared with groups a and c” value is on record as “significant decreases”; the “number of OSNs, compared with groups a and c” value was “significant decreases”; the “thickness of olfactory epithelium, compared with groups a and c” value is “significant decreases”. In the test with olfactory epithelium (setting [5]), the “number of OMP positive cells” value is given as “no significant differences”, the “number of OSNs” value is given as “no significant differences” and the “thickness of olfactory epithelium” value is on record as “no significant differences”.
